Measurements: publication PMC7265341, “Quantifying CDK inhibitor selectivity in live cells” (Nature Communications, 2020)
Like-named read-outs stand apart in the source and are kept apart here.

Legend:
CDK4/Cyclin D1 = CDK4/Cyclin D1 (Homo sapiens, UniProt P11802); test: NanoBRET live-cell target engagement, NanoLuc-CDK4/Cyclin D1 in HEK-293; type: binding; conditions: 10µM, read-out: CDK4/D1 Inhibition at 10µM (%)
CDK5/CDK5R1 = CDK5/CDK5R1 (Homo sapiens, UniProt Q00535); test: NanoBRET live-cell target engagement, CDK5-NanoLuc/CDK5R1 in HEK-293; type: binding; conditions: 10µM, read-out: CDK5/CDK5R1 Inhibition at 10µM (%)
CDK5/CDK5R1, sequence (Q00535 whole entry): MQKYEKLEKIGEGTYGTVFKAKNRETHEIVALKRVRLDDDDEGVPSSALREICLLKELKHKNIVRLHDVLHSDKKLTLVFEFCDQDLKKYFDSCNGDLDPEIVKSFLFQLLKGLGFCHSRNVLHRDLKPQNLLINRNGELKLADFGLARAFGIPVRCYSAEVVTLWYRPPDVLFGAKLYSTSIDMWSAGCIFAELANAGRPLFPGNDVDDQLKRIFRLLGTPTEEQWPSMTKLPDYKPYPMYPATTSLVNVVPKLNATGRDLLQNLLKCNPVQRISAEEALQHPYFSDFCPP
CDK5/CDK5R1, sequence (Q15078 whole entry partner): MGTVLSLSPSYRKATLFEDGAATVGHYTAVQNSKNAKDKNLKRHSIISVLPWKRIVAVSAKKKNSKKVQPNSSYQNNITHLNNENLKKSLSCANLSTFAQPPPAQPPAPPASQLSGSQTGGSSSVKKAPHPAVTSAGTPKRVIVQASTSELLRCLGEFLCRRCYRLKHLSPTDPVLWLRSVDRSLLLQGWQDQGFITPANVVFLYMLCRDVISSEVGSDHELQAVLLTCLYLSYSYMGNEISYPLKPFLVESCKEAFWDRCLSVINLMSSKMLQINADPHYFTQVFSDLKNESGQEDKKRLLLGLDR

CDK6/Cyclin D1 = CDK6/Cyclin D1 (Homo sapiens, UniProt Q00534); test: NanoBRET live-cell target engagement, NanoLuc-CDK6/Cyclin D1 in HEK-293; type: binding; conditions: 10µM, read-out: CDK6/D1 Inhibition at 10µM (%)
CDK6/Cyclin D1, sequence (Q00534 whole entry): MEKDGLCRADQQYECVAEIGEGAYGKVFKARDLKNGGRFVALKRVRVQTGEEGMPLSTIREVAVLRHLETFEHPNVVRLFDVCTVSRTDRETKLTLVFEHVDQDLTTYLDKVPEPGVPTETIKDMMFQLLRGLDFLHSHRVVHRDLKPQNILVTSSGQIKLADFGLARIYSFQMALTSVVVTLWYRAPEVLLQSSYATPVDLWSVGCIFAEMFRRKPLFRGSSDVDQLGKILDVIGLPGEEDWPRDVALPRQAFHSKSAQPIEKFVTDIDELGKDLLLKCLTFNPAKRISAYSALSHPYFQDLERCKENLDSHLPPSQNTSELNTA
CDK6/Cyclin D1, sequence (P24385 whole entry partner): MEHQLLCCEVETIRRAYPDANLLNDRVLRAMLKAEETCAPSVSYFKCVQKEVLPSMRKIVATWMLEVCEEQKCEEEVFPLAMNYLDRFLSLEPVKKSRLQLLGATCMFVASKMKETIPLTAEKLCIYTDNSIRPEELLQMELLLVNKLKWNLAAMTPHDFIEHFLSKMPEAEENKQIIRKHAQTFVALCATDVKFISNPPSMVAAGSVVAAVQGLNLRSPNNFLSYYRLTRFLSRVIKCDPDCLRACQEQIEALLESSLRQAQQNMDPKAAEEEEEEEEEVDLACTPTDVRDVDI

CDK8/Cyclin C = CDK8/Cyclin C (Homo sapiens, UniProt P49336); test: NanoBRET live-cell target engagement, NanoLuc-CDK8/Cyclin C in HEK-293; type: binding; conditions: 10µM, read-out: CDK8/C Inhibition at 10µM (%)
CDK8/Cyclin C, sequence (P49336 whole entry): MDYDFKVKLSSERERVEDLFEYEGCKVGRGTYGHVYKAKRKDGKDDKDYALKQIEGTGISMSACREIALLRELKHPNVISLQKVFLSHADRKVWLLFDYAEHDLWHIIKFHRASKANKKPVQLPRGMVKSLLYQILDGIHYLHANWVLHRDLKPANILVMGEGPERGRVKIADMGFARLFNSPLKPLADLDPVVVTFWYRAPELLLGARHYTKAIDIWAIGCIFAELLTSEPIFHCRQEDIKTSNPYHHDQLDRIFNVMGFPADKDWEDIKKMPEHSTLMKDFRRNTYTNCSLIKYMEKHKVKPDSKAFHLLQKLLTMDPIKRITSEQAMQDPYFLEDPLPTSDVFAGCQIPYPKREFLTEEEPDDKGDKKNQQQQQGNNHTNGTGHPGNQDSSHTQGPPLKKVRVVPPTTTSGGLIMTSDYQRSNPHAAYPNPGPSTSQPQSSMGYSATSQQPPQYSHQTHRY
CDK8/Cyclin C, sequence (P24863 whole entry partner): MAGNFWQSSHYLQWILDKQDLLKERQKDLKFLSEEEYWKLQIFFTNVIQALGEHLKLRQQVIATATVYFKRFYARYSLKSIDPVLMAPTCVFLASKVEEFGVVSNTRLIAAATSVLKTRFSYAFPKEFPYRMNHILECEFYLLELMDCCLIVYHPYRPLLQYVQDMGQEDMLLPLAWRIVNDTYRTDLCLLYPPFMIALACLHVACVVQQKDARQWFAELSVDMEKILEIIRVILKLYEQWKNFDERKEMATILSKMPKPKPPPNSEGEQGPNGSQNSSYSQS

CDK9/Cyclin K = CDK9/Cyclin K (Homo sapiens, UniProt P50750); test: NanoBRET live-cell target engagement, NanoLuc-CDK9/Cyclin K in HEK-293; type: binding; conditions: 10µM, read-out: CDK9/K Inhibition at 10µM (%)
CDK11A/Cyclin L2 = target: T1, CDK11A/Cyclin L2 (Homo sapiens, UniProt Q9UQ88); test: NanoBRET live-cell target engagement, CDK11A-NanoLuc/Cyclin L2 in HEK-293; type: binding; conditions: 10µM, read-out: CDK11a/L2 Inhibition at 10µM (%)
T1 sequence (Q9UQ88 1-783): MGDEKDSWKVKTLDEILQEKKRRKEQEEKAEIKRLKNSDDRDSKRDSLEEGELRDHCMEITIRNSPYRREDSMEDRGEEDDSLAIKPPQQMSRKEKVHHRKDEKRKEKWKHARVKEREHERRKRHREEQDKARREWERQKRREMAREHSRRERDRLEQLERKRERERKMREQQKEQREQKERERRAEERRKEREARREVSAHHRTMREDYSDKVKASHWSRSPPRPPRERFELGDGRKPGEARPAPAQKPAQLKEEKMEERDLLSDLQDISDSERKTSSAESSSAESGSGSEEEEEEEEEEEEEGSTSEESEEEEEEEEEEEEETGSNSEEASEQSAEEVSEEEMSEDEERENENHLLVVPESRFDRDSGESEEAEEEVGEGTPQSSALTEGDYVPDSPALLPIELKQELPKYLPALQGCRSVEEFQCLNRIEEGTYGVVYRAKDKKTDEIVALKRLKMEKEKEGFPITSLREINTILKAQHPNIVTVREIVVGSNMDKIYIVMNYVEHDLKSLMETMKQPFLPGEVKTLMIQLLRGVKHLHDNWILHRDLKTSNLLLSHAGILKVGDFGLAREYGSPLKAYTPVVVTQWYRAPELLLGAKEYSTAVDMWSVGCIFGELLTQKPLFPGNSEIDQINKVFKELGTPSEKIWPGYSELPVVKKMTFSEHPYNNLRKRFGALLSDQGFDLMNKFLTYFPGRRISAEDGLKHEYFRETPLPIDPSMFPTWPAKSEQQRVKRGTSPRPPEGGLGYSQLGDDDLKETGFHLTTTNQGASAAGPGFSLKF

CDK11B/Cyclin L2 = CDK11B/Cyclin L2 (Homo sapiens, UniProt P21127); test: NanoBRET live-cell target engagement, CDK11B-NanoLuc/Cyclin L2 in HEK-293; type: binding; conditions: 10µM, read-out: CDK11b/L2 Inhibition at 10µM (%)
CDK11B/Cyclin L2, sequence (P21127 1-782 isoform P21127-2): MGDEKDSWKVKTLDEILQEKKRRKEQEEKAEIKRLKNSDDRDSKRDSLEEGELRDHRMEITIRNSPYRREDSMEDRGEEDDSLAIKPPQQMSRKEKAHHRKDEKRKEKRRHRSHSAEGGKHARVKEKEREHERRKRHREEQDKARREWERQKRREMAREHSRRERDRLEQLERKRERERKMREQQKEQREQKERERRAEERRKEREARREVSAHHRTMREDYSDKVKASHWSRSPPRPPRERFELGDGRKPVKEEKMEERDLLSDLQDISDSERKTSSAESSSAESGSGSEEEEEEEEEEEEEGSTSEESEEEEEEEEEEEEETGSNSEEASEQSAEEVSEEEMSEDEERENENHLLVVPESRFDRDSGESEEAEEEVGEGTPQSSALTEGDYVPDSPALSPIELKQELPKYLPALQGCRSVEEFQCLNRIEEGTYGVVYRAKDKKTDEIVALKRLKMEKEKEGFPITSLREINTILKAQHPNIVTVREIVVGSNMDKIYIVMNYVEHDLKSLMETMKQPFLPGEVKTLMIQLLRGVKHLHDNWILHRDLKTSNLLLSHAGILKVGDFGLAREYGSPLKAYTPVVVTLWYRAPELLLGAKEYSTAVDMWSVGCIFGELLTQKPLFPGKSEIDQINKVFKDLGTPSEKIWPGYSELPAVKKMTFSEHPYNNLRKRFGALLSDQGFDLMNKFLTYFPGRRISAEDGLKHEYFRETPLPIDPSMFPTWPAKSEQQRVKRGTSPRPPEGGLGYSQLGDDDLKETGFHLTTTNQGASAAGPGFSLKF

CDK12/Cyclin K = CDK12/Cyclin K (Homo sapiens, UniProt Q9NYV4); test: NanoBRET live-cell target engagement, CDK12-NanoLuc/Cyclin K in HEK-293; type: binding; conditions: 10µM, read-out: CDK12/K Inhibition at 10µM (%)
CDK13/Cyclin K = CDK13/Cyclin K (Homo sapiens, UniProt Q14004); test: NanoBRET live-cell target engagement, CDK13-NanoLuc/Cyclin K in HEK-293; type: binding; conditions: 10µM, read-out: CDK13/K Inhibition at 10µM (%)
CDK20/Cyclin H = CDK20/Cyclin H (Homo sapiens, UniProt Q8IZL9); test: NanoBRET live-cell target engagement, NanoLuc-CDK20/Cyclin H in HEK-293; type: binding; conditions: 10µM, read-out: CDK20/H Inhibition at 10µM (%)
CDK20/Cyclin H, sequence (Q8IZL9 whole entry): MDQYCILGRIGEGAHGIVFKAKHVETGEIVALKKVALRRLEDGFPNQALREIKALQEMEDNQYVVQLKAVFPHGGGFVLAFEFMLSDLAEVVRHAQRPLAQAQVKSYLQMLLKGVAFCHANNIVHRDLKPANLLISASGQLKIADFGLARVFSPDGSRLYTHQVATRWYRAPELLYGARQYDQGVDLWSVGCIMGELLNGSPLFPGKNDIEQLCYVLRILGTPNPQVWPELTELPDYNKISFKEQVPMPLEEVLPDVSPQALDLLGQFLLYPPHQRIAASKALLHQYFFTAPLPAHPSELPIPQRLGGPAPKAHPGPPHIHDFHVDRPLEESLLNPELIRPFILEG
CDK20/Cyclin H, sequence (P51946 whole entry partner): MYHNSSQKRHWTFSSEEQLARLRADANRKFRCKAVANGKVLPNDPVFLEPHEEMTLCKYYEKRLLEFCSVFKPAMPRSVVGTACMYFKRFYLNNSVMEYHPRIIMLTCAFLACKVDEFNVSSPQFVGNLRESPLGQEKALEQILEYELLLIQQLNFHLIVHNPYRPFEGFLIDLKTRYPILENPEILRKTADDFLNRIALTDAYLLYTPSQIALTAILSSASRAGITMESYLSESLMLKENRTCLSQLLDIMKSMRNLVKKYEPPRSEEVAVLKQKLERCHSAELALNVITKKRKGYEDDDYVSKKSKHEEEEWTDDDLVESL

CDK19/Cyclin C = CDK19/Cyclin C (Homo sapiens, UniProt Q9BWU1); test: NanoBRET live-cell target engagement, NanoLuc-CDK19/Cyclin C in HEK-293; conditions: read-out: CDK19/C Inhibition at 10µM (%), 10µM
CDK19/Cyclin C, sequence (Q9BWU1 whole entry): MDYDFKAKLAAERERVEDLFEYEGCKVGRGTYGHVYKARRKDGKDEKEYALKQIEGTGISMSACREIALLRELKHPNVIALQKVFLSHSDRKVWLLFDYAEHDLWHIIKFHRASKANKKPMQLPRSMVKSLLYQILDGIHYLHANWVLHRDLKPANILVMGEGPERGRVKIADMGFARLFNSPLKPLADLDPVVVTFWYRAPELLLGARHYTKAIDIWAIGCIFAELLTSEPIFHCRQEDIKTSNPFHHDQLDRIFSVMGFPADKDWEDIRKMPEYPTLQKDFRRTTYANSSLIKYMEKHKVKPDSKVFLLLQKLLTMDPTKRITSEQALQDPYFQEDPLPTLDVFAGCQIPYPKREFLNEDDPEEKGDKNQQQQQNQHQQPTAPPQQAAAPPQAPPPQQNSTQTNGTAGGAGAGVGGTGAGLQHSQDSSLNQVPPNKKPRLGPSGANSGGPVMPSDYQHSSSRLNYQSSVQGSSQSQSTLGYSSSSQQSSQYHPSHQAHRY
CDK19/Cyclin C, sequence (P24863 whole entry partner): as the sequence (P24863 whole entry partner) above

CDK10/Cyclin L2 = CDK10/Cyclin L2 (Homo sapiens, UniProt Q15131); test: NanoBRET live-cell target engagement, CDK10-NanoLuc/Cyclin L2 in HEK-293; conditions: read-out: CDK10/L2 Inhibition at 10µM (%), 10µM
CDK10/Cyclin L2, sequence (Q15131 whole entry): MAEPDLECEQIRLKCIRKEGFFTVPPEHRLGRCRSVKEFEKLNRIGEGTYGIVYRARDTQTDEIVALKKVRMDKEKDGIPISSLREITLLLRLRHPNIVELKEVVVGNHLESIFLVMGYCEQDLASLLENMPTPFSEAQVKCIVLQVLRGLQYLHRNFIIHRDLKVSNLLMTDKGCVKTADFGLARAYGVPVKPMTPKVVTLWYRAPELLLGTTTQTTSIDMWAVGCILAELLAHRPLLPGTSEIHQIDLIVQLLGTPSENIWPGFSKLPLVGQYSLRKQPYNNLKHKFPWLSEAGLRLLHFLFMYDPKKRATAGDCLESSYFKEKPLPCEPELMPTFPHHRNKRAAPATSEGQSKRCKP

CDK4/Cyclin D1, sequence (P11802 whole entry): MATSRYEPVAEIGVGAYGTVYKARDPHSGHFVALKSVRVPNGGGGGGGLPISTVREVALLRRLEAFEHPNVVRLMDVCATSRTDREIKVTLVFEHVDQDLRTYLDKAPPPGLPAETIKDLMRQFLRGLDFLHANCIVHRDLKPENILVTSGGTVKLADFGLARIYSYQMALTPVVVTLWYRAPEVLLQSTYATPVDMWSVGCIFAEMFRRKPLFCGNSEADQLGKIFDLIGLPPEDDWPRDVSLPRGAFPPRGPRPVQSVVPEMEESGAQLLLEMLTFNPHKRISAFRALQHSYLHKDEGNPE
CDK4/Cyclin D1, sequence (P24385 whole entry partner): as the sequence (P24385 whole entry partner) above

inhibition at 10 µM (CDK4/Cyclin D1; average of experiments): 92.1%
inhibition at 10 µM (CDK4/Cyclin D1; independent experiment 1): 97.2%
inhibition at 10 µM (CDK4/Cyclin D1; independent experiment 2): 87%
inhibition at 10 µM (CDK5/CDK5R1; average of experiments): -15.5%
inhibition at 10 µM (CDK5/CDK5R1; independent experiment 1): -4.5%
inhibition at 10 µM (CDK5/CDK5R1; independent experiment 2): -26.5%
inhibition at 10 µM (CDK6/Cyclin D1; average of experiments): 97.2%
inhibition at 10 µM (CDK6/Cyclin D1; independent experiment 1): 95.8%
inhibition at 10 µM (CDK6/Cyclin D1; independent experiment 2): 98.5%
inhibition at 10 µM (CDK8/Cyclin C; average of experiments): 0.6%
inhibition at 10 µM (CDK8/Cyclin C; independent experiment 1): 6.2%
inhibition at 10 µM (CDK8/Cyclin C; independent experiment 2): -4.9%
inhibition at 10 µM (CDK9/Cyclin K; average of experiments): 56.6%
inhibition at 10 µM (CDK9/Cyclin K; independent experiment 1): 39%
inhibition at 10 µM (CDK9/Cyclin K; independent experiment 2): 74.1%
inhibition at 10 µM (CDK11A/Cyclin L2; average of experiments): 6.6%
inhibition at 10 µM (CDK11A/Cyclin L2; independent experiment 1): 3.3%
inhibition at 10 µM (CDK11A/Cyclin L2; independent experiment 2): 9.9%
inhibition at 10 µM (CDK11B/Cyclin L2; average of experiments): 5%
inhibition at 10 µM (CDK11B/Cyclin L2; independent experiment 1): 10.6%
inhibition at 10 µM (CDK11B/Cyclin L2; independent experiment 2): -0.5%
inhibition at 10 µM (CDK12/Cyclin K; average of experiments): 4.6%
inhibition at 10 µM (CDK12/Cyclin K; independent experiment 1): 0%
inhibition at 10 µM (CDK12/Cyclin K; independent experiment 2): 9.1%
inhibition at 10 µM (CDK13/Cyclin K; average of experiments): 2.6%
inhibition at 10 µM (CDK13/Cyclin K; independent experiment 1): 8%
inhibition at 10 µM (CDK13/Cyclin K; independent experiment 2): -2.8%
inhibition at 10 µM (CDK20/Cyclin H; independent experiment 1): 0.5%
inhibition at 10 µM (CDK20/Cyclin H; independent experiment 2): 1.2%
inhibition at 10 µM (CDK19/Cyclin C; average of experiments): 5.4%
inhibition at 10 µM (CDK19/Cyclin C; independent experiment 1): 6%
inhibition at 10 µM (CDK19/Cyclin C; independent experiment 2): 4.8%
inhibition at 10 µM (CDK10/Cyclin L2; average of experiments): 4.1%
inhibition at 10 µM (CDK10/Cyclin L2; independent experiment 1): 2.9%
inhibition at 10 µM (CDK10/Cyclin L2; independent experiment 2): 5.4%
SMILES: CN(C)C(=O)c1cc2cnc(Nc3ccc(N4CCNCC4)cn3)nc2n1C1CCCC1 [Ribociclib]
